Non-standard residues stand in square brackets, D forms with d. No end group written: not given here. Ahx = NCCCCCC(=O)O; βAla = NCCC(=O)O

Assay [1] deals with dystrophin exon 23. As to the kind of experiment: Exon skipping in differentiated mouse H2K mdx myotubes (nested RT-PCR, densitometry). The assay is classed as cell-based. The settings on record: Example 5, conjugate 0.125 to 2.0 μM, no transfection agent. The protocol: The exon skipping potential of Pip6-PMO conjugates was evaluated in differentiated mouse H2K mdx myotubes in the absence of any transfection agent (FIG. 1) at concentrations ranging from 0.125 μM to 1 μM. […] In the case of Pip6 sequences, the flanking arginine-rich sequences are identical (with the exception of Pip6e, which is identical except for one arginine immediately preceding the core which is displaced into the second position of the core). […] Note that we have previously shown that major changes in in vitro exon skipping activities are correlated instead with the total numbers of arginine residues [Saleh, A. F., et al., Synthesis and splice-redirecting activity of branched, arginine-rich peptide dendrimer conjugates of peptide nucleic acid oligonucleotides. Bioconjug Chem, 2010. 21(10): p. 1902-11.].
H2K mdx myotubes are derived from H2K mdx myoblasts obtained from the EDL muscle of a male H2K mdx f2 mouse. The cells are dystrophin deficient and conditionally immortal due to thermolabile simian virus 40 large tumor antigen (tsA58) expression. The myoblasts proliferate at 33° C. (10% CO2) in rich culture and differentiate into myotubes at 37° C. in media with horse serum.
H2K mdx myotubes were prepared and incubated with peptide-PNA and peptide-PMO conjugates in the absence of any transfection agent by the methods described previously (Wang, Q, Yin, H, et aL (2010) In vitro evaluation of novel antisense oligonucleotides is predictive of in vivo exon skipping activity for Duchenne muscular dystrophy) but with minor variations.
Myotubes were obtained from confluent H2K mdx cells seeded in gelatine coated 24-well plates following 2 days of serum deprivation (DMEM with 5% horse serum). The conjugates were incubated with myotubes for 4 h in 0.5 mL OptiMEM and then replaced by 1 mL of DMEM/5% horse serum media for further incubation. After 20 h myotubes were washed twice with PBS and total RNA was extracted with 0.5 mL of TRI Reagent (Sigma, UK). RNA preparations were treated with RNAse free DNAse (2U) and Proteinase K ([…]) prior to RT-PCR analysis. RT-PCR was carried out in 25 μL with 1 μg RNA template using SuperScript III One-Step RTPCR System with Platinum Taq DNA polymerase (Invitrogen) primed by forward primer 5′CAG AAT TCT GCC AAT TGC TGAG3′ [SEQ ID NO:312] and reverse primer 5′TTC TTC AGC TTG TGT CAT CC3′ [SEQ ID NO:313]. The initial cDNA synthesis was performed at 55° C. for 30 min followed by 30 cycles of 95° C. for 30 sec, 55° C. for 1 min and 68° C. for 80 sec. RT PCR product ([…]) was then used as the template for secondary PCR performed in 25 μL with 0.5 U Super TAQ polymerase (HT Biotechnologies) and primed by forward primer 5′CCCAGTCTACCACCCTATCAG AGC3′ [SEQ ID NO:314] and reverse primer 5′CCT GCC TTT AAG GCT TCC TT3′ [SEQ ID NO:315]. The cycling conditions were 95° C. for 1 min, 57° C. for 1 min and 72° C. for 80 sec for 25 cycles. Products were examined by 2% agarose gel and after scanning using Gene Tools Analysis Software (SynGene) the relative amount of exon 23 skipping was expressed as a percentage at a given concentration of conjugates averaged over duplicates of three experiments.
H2K mdx myotubes were prepared and incubated with peptide-PMO conjugates in the absence of any transfection agent at concentrations of 0.125, 0.25, 0.5 and 1.0 μM by the method described previously [Yin, H., et al., Pip5 transduction peptides direct high efficiency oligonucleotide-mediated dystrophin exon skipping in heart and phenotypic correction in mdx mice. Mol Ther, 2011. 19(7): p. 1295-303.]. The products of nested RT-PCR from total isolated RNA were examined by electrophoresis on a 2% agarose gel. Quantification of Δ23 transcript levels was calculated using densitometry. […]

The subject of assay [2] is dystrophin. As to the kind of experiment: In vivo exon skipping and dystrophin production in mdx mice (combined RNA and protein read-outs). The following applies: lead PPMO comparison; TA, quadriceps, diaphragm and heart; 8 week old mdx mice, 12.5 mg/kg IV, 2 weeks. The text has this:
Given the potency of Pip5e-PMO in heart tissue, the aim of altering the sequence of the hydrophobic core (whilst maintaining the 5-aa length) was to identify peptides that might be more efficient at lower doses. These modifications included inversion of the hydrophobic region (Pip6a), substitution of tyrosine by isoleucine (Pip6b), substitution of glutamine in the Pip6a sequence by displacement of the arginine immediately flanking the core in the first arginine-rich flanking region (Pip6e), and a scrambled hydrophobic core sequence (Pip6f). All Pip6 peptide-PMO conjugates were administered to mdx mice as single 12.5 mg/kg intravenous injections via the tail vein and tissues were harvested 2 weeks later and assessed for activity at both RNA and protein levels. […]
Immunohistochemical staining (data not shown) was used to visualise the production of dystrophin protein (and its correct re-location at the sarcolemma) and RT-PCR was used to detect exon-skipped products in treated mdx muscle groups. qPCR allows for the quantification of the spliced product and Western blots were used to quantify the amount of dystrophin protein produced in muscles from treated mdx mice as compared with C57BL10 and untreated mdx controls. […]

As for “Pip9d2: Pip9 series peptide (SEQ ID Nos 320-328) conjugated to PMODMD (R[Ahx]RR[βAla]RFQILY[βAla]R[Ahx]R[βAla]; also: conjugated to PMO (PMODMD))”, the “exon skipping activity (Δ23 skipping) in mdx muscle cells” value in assay [1] is recorded as “high exon skipping activity”. Besides, in assay [2], the “levels of exon-skipped dystrophin RNA and protein” value is listed as “negligible dystrophin production”.

(Values after patent US9302014B2, “Cell-penetrating peptides having a central hydrophobic domain” (Medical Research Council, priority 2011, dated 2016).)
